Entries after “also recorded” stand apart in the source; their conditions may differ.
Key:
SARS-CoV-2 = experiment: Medication use in COVID-19 positive and negative patients (retrospective propensity-score-matched study of hospitalized patients); format: in vivo, human; settings: for SARS-CoV-2 Positive Test Result, percentage of patients (infection rate): drug use group of PS-matched sample, hospitalized patients Jan. 1, 2020 to Dec. 30, 2020; for difference in SARS-CoV-2 infection rates between drug use and no drug use: PS-matched groups, significance defined as p<0.05
Human recombinant ACE2 = molecular target: T1, Human recombinant ACE2 (Homo sapiens, UniProt Q9BYF1); format: biochemical
T1 construct: purchased R&D systems, Minneapolis, USA
T1 sequence (Q9BYF1 18-740 limits assumed): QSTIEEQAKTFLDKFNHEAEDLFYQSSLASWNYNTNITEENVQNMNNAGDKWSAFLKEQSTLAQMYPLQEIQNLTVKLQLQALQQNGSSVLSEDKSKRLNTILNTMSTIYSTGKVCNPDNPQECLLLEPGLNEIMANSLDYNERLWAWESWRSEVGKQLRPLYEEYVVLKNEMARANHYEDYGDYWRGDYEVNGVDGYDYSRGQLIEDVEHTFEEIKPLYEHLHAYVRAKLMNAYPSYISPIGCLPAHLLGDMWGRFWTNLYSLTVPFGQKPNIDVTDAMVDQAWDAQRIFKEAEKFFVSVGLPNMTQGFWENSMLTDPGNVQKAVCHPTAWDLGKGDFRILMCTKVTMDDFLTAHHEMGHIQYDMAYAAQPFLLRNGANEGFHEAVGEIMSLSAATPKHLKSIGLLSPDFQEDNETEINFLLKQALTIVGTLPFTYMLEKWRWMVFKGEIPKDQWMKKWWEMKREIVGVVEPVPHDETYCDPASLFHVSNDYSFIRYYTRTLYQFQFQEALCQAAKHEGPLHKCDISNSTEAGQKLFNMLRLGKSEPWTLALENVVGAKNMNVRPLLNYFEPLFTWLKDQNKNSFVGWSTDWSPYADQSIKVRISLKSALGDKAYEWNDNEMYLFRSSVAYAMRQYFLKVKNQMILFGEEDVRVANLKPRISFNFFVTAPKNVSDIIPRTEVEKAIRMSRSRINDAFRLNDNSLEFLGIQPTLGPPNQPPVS

VERO-E6 cells = format: cell-based, monkey; settings: 100 μM drug for 6 hours without FBS, then spike protein (30 ug) for 12 hours
[1] = SARS-CoV-2 positive patients, drug use group, PS-matched
[2] = patients who tested positive in PS-matched sample

CN(C)CCC(c1ccc(Br)cc1)c1ccccn1 (centres unmarked) [Brompheniramine]
SARS-CoV-2 Positive Test Result, percentage of patients (infection rate) (SARS-CoV-2): 33.33%

CN1CCCC(n2nc(Cc3ccc(Cl)cc3)c3ccccc3c2=O)CC1 (centres unmarked) [Azelastine]
SARS-CoV-2 Positive Test Result, percentage of patients (infection rate) (SARS-CoV-2): 7.69%

O=C(O)COCCN1CCN([C@@H](c2ccccc2)c2ccc(Cl)cc2)CC1 [S-Cetirizine, dextrocetirizine]
fluorescence signal (ACE2 activity) upon further addition of drug (Human recombinant ACE2): further decreased

NC(N)=Nc1nc(CSCCC(N)=NS(N)(=O)=O)cs1 [Famotidine]
SARS-CoV-2 Positive Test Result, percentage of patients (infection rate) (SARS-CoV-2): 18.87%

CN(C)CCC(c1ccc(Cl)cc1)c1ccccn1 (centres unmarked) [Chlorpheniramine]
SARS-CoV-2 Positive Test Result, percentage of patients (infection rate) (SARS-CoV-2): 16.67%

O=C(O)COCCN1CCN([C@H](c2ccccc2)c2ccc(Cl)cc2)CC1 [Levocetirizine, levocetirizine]
SARS-CoV-2 Positive Test Result, percentage of patients (infection rate) (SARS-CoV-2): 15.38%
fluorescence signal (ACE2 activity) upon further addition of drug (Human recombinant ACE2): further decreased
spike protein in the cell lysate (western blot) (VERO-E6 cells): no spike protein

CN1CCC(=C2c3ccccc3CC(=O)c3sccc32)CC1 [Ketotifen]
SARS-CoV-2 Positive Test Result, percentage of patients (infection rate) (SARS-CoV-2): 0 (0%)

CN(C)CCOC(c1ccccc1)c1ccccc1 [Diphenhydramine]
SARS-CoV-2 Positive Test Result, percentage of patients (infection rate) (SARS-CoV-2): 12.8%
concentration at transition point from inhibiting to activating the ACE2 receptor (Human recombinant ACE2): 1 µM
spike protein in the cell lysate (western blot) (VERO-E6 cells): no spike protein

O=C(O)COCCN1CCN(C(c2ccccc2)c2ccc(Cl)cc2)CC1 (centres unmarked) [Cetirizine]
SARS-CoV-2 Positive Test Result, percentage of patients (infection rate) (SARS-CoV-2): 17.97%

CN(C)CC/C=C1/c2ccccc2COc2ccc(CC(=O)O)cc21 [Olopatadine]
SARS-CoV-2 Positive Test Result, percentage of patients (infection rate) (SARS-CoV-2): 18.75%

OCCOCCN1CCN(C(c2ccccc2)c2ccc(Cl)cc2)CC1 (centres unmarked) [Hydroxyzine]
difference in SARS-CoV-2 infection rates between drug use and no drug use (SARS-CoV-2): statistically significantly different
difference in SARS-CoV-2 infection rates between drug use and no drug use (SARS-CoV-2; listed as hydroxyzine): significant difference; also recorded: lower infection rates
ICU Admission, number of patients (SARS-CoV-2; [1]): 5
ICU Admission, percentage of patients (SARS-CoV-2; [1]): 19.23%
ICU LOS (length of stay), mean (standard deviation) (SARS-CoV-2; [1]): 22.4 (26.43)
SARS-CoV-2 Positive Test Result, percentage of patients (infection rate) (SARS-CoV-2): 12.62%
Odds Ratio for SARS-CoV-2 infection (SARS-CoV-2; multiple logistic regression model, drug use as covariate, PS-matched sample): 0.919
difference in ICU admission rates between drug use and no drug use (SARS-CoV-2; [2]): not a significant difference
difference in ICU length of stay between drug use and no drug use (SARS-CoV-2; [2]): not a significant difference
fluorescence signal (ACE2 activity) upon further addition of drug (Human recombinant ACE2): increased
spike protein in the cell lysate (western blot) (VERO-E6 cells): no spike protein

CC(C)(C(=O)O)c1ccc(C(O)CCCN2CCC(C(O)(c3ccccc3)c3ccccc3)CC2)cc1 (centres unmarked) [Fexofenadine]
SARS-CoV-2 Positive Test Result, percentage of patients (infection rate) (SARS-CoV-2): 18.92%

CN1CCC[C@@H](n2nc(Cc3ccc(Cl)cc3)c3ccccc3c2=O)CC1 [R-Azelastine]
concentration at transition point from inhibiting to activating the ACE2 receptor (Human recombinant ACE2): 1 µM
spike protein in the cell lysate (western blot) (VERO-E6 cells): no spike protein

CCOC(=O)N1CCC(=C2c3ccc(Cl)cc3CCc3cccnc32)CC1 [Loratadine]
SARS-CoV-2 Positive Test Result, percentage of patients (infection rate) (SARS-CoV-2): 18.65%

CN1CCC[C@H](n2nc(Cc3ccc(Cl)cc3)c3ccccc3c2=O)CC1 [S-Azelastine]
concentration at transition point from inhibiting to activating the ACE2 receptor (Human recombinant ACE2): 1 µM

CNC(=C[N+](=O)[O-])NCCSCc1ccc(CN(C)C)o1 [Ranitidine]
SARS-CoV-2 Positive Test Result, percentage of patients (infection rate) (SARS-CoV-2): 15.29%

CN/C(=N/CCSCc1nc[nH]c1C)NC#N [Cimetidine]
SARS-CoV-2 Positive Test Result, percentage of patients (infection rate) (SARS-CoV-2): 35.71%
